Experimental data published in US20100286389A1, “STABLE CRYSTAL OF BETA-LACTAM COMPOUND” (priority 2007, published 2010).
Values belong to the molecule of their own block, whether it stands above or below them.

Assays:
[1] = system: Gram positive bacteria, especially methicillin resistant staphylococcus and methicillin resistant coagulase negative staphylococcus; details: cited from earlier work
[2] = Stability test (Test 3), closed vial, HPLC area percentage of Compound A; format: physicochemical
Protocol: Stability test on each test sample was conducted under following storage conditions.
(§1) Column: SUMIPAX ODS-A212 (silica gel binding with octadecyl group, particle size 5 μm; 6.0 mm φ×15 cm), mobile phase A solution: a mixture of 0.005 mol/L phosphate buffer (pH7.0) and acetonitrile (300:23(v/v)), mobile phase B solution: acetonitrile, solvent for sample: water and acetonitrile (90:10(v/v)), wavelength: 220 nm, column temperature: constant temperature around 25° C., flow rate: 1.0 mL/min, injection amount: 10 μL, and gradient condition: […]

[3] = Stability test on Form I crystal under humidity condition (Test 4); format: physicochemical; details: usual handling condition
Description: Evaluation was based on change of area percentage of Compound A with HPLC (High Performance Liquid Chromatography) under following conditions:
as §1
In order to confirm the stability on Form I crystal under humidity condition was conducted following test. The test was carried out by using moisture-absorbed Form I crystal, which was prepared by storing Form I crystal obtained by the method of Example 2 under the atmosphere with 53% RH in a whole day in order to make it absorb moisture.

Compound: C[C@H]1C=C(c2csc(SC3=C(C(=O)O)N4C(=O)[C@H]([C@@H](C)O)[C@H]4[C@H]3C)n2)CN1 [Compound A, (4R,5S,6S)-6-[(1R)-1-hydroxyethyl]-4-methyl-3-({4-[(5S)-5-methyl-2,5-dihydro-1H-pyrrol-3-yl]-1,3-thiazol-2-yl}thio)-7-oxo-1-azabicyclo[3.2.0]hept-2-ene-2-carboxylic acid]
Activity against Gram positive bacteria [1]: excellent activity

Compound A (HPLC surface area %) ([2]; closed vial at 55° C., 2 weeks): 99.60%
Difference from initial value (HPLC surface area %) ([2]; closed vial at 55° C., 2 weeks): −0.17%
Compound A (HPLC surface area %) ([2]; closed vial at 55° C., 4 weeks): 99.60%
Difference from initial value (HPLC surface area %) ([2]; closed vial at 55° C., 4 weeks): −0.17%
Compound A (HPLC surface area %) ([2]; closed vial at 55° C., Initial): 99.77%
Difference from initial value (HPLC surface area %) ([2]; closed vial at 55° C., Initial): 0%
Stability in words ([2]; normal / usual storage condition, conclusion from the stability tests): extremely stable
Moisture absorption in words [3]: absorbs a little moisture
Stability in words [3]: excellent
Compound: C[C@H]1C=C(c2csc(SC3=C(C(=O)O)N4C(=O)[C@H]([C@@H](C)O)[C@H]4[C@H]3C)n2)CN1 [Form I crystal, (4R,5S,6S)-6-[(1R)-1-hydroxyethyl]-4-methyl-3-({4-[(5S)-5-methyl-2,5-dihydro-1H-pyrrol-3-yl]-1,3-thiazol-2-yl}thio)-7-oxo-1-azabicyclo[3.2.0]hept-2-ene-2-carboxylic acid]

Compound A (HPLC surface area %) ([2]; closed vial at 50° C., 1 week): 73.40%
Compound A (HPLC surface area %) ([2]; closed vial at 50° C., 3 weeks): 54.53%
Compound A (HPLC surface area %) ([2]; closed vial at 50° C., 6 weeks): 39.93%
Compound A (HPLC surface area %) ([2]; closed vial at 50° C., 8 weeks): 41.33%
Compound A (HPLC surface area %) ([2]; closed vial at 50° C., 1 day): 91.68%
Compound A (HPLC surface area %) ([2]; closed vial at 50° C., Initial): 97.95%
Compound: C[C@H]1C=C(c2csc(SC3=C(C(=O)O)N4C(=O)[C@H]([C@@H](C)O)[C@H]4[C@H]3C)n2)CN1 [amorphous Compound A, (4R,5S,6S)-6-[(1R)-1-hydroxyethyl]-4-methyl-3-({4-[(5S)-5-methyl-2,5-dihydro-1H-pyrrol-3-yl]-1,3-thiazol-2-yl}thio)-7-oxo-1-azabicyclo[3.2.0]hept-2-ene-2-carboxylic acid]
